Patent US20140357512A1, “HISTONE DEACETYLASE (HDAC) BIOMARKERS IN MULTIPLE MYELOMA” (priority 2013, published 2014)

Tested on: human myeloma cell line MM.1S
Experiment: SILAC acetylated-lysine peptide profiling, HDAC inhibitor vs DMSO (light/heavy ratio)
Assay type: cell-based
From the text: An embodiment of the invention comprises utilizing the SILAC method in order to quantitate changes in protein expression between two or more populations of cells. The SILAC method is a technique based on mass spectrometry that detects differences in protein abundance among samples using non-radioactive isotopic labeling. The SILAC method is known in the art, and described in detail in Ong et al., “Stable Isotope Labeling by Amino Acids in Cell Culture, SILAC, as a Simple and Accurate Approach to Expression Proteomics”, Molecular & Cellular Proteomics, vol. 1, pp. 376-386 (2002), which is incorporated herein by reference in its entirety.
Briefly, the SILAC method involves growing two populations of cells in cell culture. The first population of cells is grown in growth media containing normal amino acids (“normal media”). The second population of cells is grown in media lacking a standard essential amino acid (such as lysine), but is then supplemented with a non-radioactive, isotopically labeled form of that essential amino acid (such as lysine labeled with ^13C atoms, rather than normal ^12C atoms), which is called “heavy media”. When the two populations of cells are each growing in the medium, they incorporate the amino acids into all of their proteins. The growth of cells maintained in the heavy media is no different from that in normal media. All peptides containing the heavy amino acids are heavier than their normal counterparts. The cells from each of the two populations of cells are lysed. The lysates from each of the two cell populations are then combined. The combined cell lysates are then analyzed by mass spectrometry. Pairs of chemically identical peptides of different stable isotope composition can be differentiated in a mass spectrometer due to their difference in mass. The ratio of peak intensities in the mass spectrum for such peptide pairs reflects the abundance ratio for the two proteins.
This example describes SILAC studies that were performed to compare the effects of three different HDAC inhibitors (Compound A, Compound B, and tubastatin A) to a control on a human multiple myeloma cell line. The HDAC inhibitors were also compared amongst themselves to determine differences in their effects.
A human myeloma cell line MM.1S was grown using either ^12C (light) or ^13C (heavy) lysine containing culture medium. The “heavy” cells were treated with DMSO as the control, and the “light” cells were treated with a single HDAC inhibitor at 37° C. for 6 hours. The heavy and light cells were lysed, and the lysates were mixed in 1:1 ratio and digested with the protease trypsin. The acetylated lysine containing peptides (due to the action of the HDAC inhibitor) in the digested peptide pool were captured by a non-specific anti-acetylated lysine antibody cocktail (the antibodies identify both light and heavy acetylated peptides), and subjected to mass spectrometry analysis in order to identify thousands of individual peptides.
Thousands of peptides were identified in pairs (^12C and ^13C) due to their known mass differences. The amino acid sequence and quantitative ratio (Light/Heavy) of a given peptide in two differentially treated cell lysates were then determined and annotated with their possible protein (gene) sources.
As stated above, three HDAC inhibitors (Compound A, Compound B, and Tubastatin A) were used. Thus, the SILAC method was performed three times, with a different HDAC inhibitor compared to a control each time. Accordingly, there are three pairs of quantitative data in the table below, i.e., Compound A:DMSO, Compound B:DMSO, and Tubastatin A:DMSO. A cut-off of 1.30 fold of change (increase or decrease) was then used to determine “changed” or “+” in the table, and any peptides with a fold of change less than 1.3 fold were determined to be “unchanged” or “0” in the table. Those peptides that were not identified were marked as “NA” in the table. […]

## CN1CCc2c(c3ccccc3n2Cc2ccc(C(=O)NO)cc2)C1 [Tub A]
10 kDa heat shock protein mitochondrial [70], gene HSPE1, drug:DMSO
  light to heavy ratio (L/H ratio), log 2 scale, acetylated peptide VGDK(ac)VLLPEYGGTK (SEQ ID NO: 773): 0.00
39S ribosomal protein L20 mitochondrial [26], MRPL20, drug:DMSO
  light to heavy ratio (L/H ratio) of acetylated peptide IQEVLK(ac)HAR (SEQ ID NO: 264): 0.38 log 2
40S ribosomal protein S3a [85], SNORD73A, RPS3A, drug:DMSO
  light to heavy ratio (L/H ratio) of acetylated peptide FK(ac)LITEDVQGK (SEQ ID NO: 287): −0.66 log 2
40S ribosomal protein S10 [31], RPS10, drug:DMSO
  light to heavy ratio (L/H ratio) of acetylated peptide KDVHMPK(ac)HPELADK (SEQ ID NO: 353): 0.00 log 2
40S ribosomal protein S17 [49], gene RPS17, RPS17L, inhibitor:DMSO
  light to heavy ratio (L/H ratio) of acetylated peptide NK(ac)IAGYVTHLMK (SEQ ID NO: 559): 0.00 log 2
40S ribosomal protein S23 [54], RPS23, drug:DMSO
  light to heavy ratio (L/H ratio) of acetylated peptide GIVLEK(ac)VGVEAK (SEQ ID NO: 320): −0.55 log 2
60S ribosomal protein L3 [362], gene SNORD43, RPL3, drug:DMSO
  light to heavy ratio (L/H ratio), log 2 scale, acetylated peptide ALEK(ac)IDLK (SEQ ID NO: 813): 0.00
60S ribosomal protein L6 [211], RPL6, drug:DMSO
  light to heavy ratio (L/H ratio) of acetylated peptide IPK(ac)HLTDAYFK (SEQ ID NO: 259): −0.63 log 2
60S ribosomal protein L10-like [208], gene RPL10L, inhibitor:DMSO
  light to heavy ratio (L/H ratio) of acetylated peptide GPLDK(ac)WR (SEQ ID NO: 622): 0.00 log 2
60S ribosomal protein L10 [78], gene SNORA70, RPL10, drug:DMSO
  light to heavy ratio (L/H ratio), log 2 scale, acetylated peptide YMVK(ac)SCGK (SEQ ID NO: 811): 0.00
60S ribosomal protein L13 [174], gene RPL13, inhibitor:DMSO
  light to heavy ratio (L/H ratio) of acetylated peptide VITEEEK(ac)NFK (SEQ ID NO: 522): 0.00 log 2
60S ribosomal protein L13a [25], gene SNORD32A, RPL13A, SNORD33, SNORD34, inhibitor:DMSO
  light to heavy ratio (L/H ratio) of acetylated peptide LAAIVAK(ac)QVLLGR (SEQ ID NO: 505): 0.00 log 2
60S ribosomal protein L13a [134], gene SNORD32A, RPL13A, SNORD33, SNORD34, inhibitor:DMSO
  light to heavy ratio (L/H ratio) of acetylated peptide K(ac)FAYLGR (SEQ ID NO: 614): 0.00 log 2
60S ribosomal protein L13a [148], gene SNORD32A, RPL13A, SNORD33, SNORD34, drug:DMSO
  light to heavy ratio (L/H ratio), log 2 scale, acetylated peptide LAHEVGWK(ac)[…] (SEQ ID NO: 812): 0.00
60S ribosomal protein L15 [153], gene RPL15, inhibitor:DMSO
  light to heavy ratio (L/H ratio) of acetylated peptide RNPDTQWITK(ac)PVHK (SEQ ID NO: 581): 0.00 log 2
60S ribosomal protein L27 [93], gene RPL27, drug:DMSO
  light to heavy ratio (L/H ratio), log 2 scale, acetylated peptide YSVDIPLDK(ac)TVVNK (SEQ ID NO: 807): 0.00
60S ribosomal protein L27 [98], gene RPL27, drug:DMSO
  light to heavy ratio (L/H ratio), log 2 scale, acetylated peptide TVVNK(ac)DVFR (SEQ ID NO: 766): 0.00
60S ribosomal protein L28 [19], gene RPL28, inhibitor:DMSO
  light to heavy ratio (L/H ratio) of acetylated peptide NCSSFLIK(ac)R (SEQ ID NO: 558): 0.00 log 2
60S ribosomal protein L35a [8], gene RPL35A, inhibitor:DMSO
  light to heavy ratio (L/H ratio) of acetylated peptide LWSK(ac)AIFAGYK (SEQ ID NO: 538): 0.00 log 2
60S ribosomal protein L35a [15], RPL35A, drug:DMSO
  light to heavy ratio (L/H ratio) of acetylated peptide AIFAGYK(ac)R (SEQ ID NO: 300): 0.44 log 2
78 kDa glucose-regulated protein [268], HSPA5, drug:DMSO
  light to heavy ratio (L/H ratio) of acetylated peptide VMEHFIK(ac)LYK (SEQ ID NO: 276): −0.66 log 2
78 kDa glucose-regulated protein [326], HSPA5, drug:DMSO
  light to heavy ratio (L/H ratio) of acetylated peptide AK(ac)FEELNMDLFR (SEQ ID NO: 266): −0.52 log 2
(ac)AVPPTYADLGK(ac)SAR (SEQ ID NO: 464), Voltage-dependent anion-selective channel protein 1 [12], VDAC1
  L/H ratio of acetylated peptide: 0.00 log 2
(ac)SIGVPIK(ac)VLHEAEGHIVTCETNTGEVYR (SEQ ID NO: 224), Small nuclear ribonucleoprotein Sm D3 [8], SNRPD3
  light to heavy ratio (L/H ratio) of acetylated peptide, log 2 scale: 0.40
(ac)SSNECFK(ac)CGR (SEQ ID NO: 379), Isoform 1 of Cellular nucleic acid-binding protein [8], CNBP
  L/H ratio of acetylated peptide: 0.00 log 2
(ac)SVFGK(ac)LFGAGGGK (SEQ ID NO: 143), Charged multivesicular body protein 4b [6], CHMP4B
  light to heavy ratio (L/H ratio) of acetylated peptide, log 2 scale: −0.39
ACADVL [428], log 2 scale, drug vs DMSO
  L/H ratio of acetylated peptide IHNFGLIQEK(ac)LAR (SEQ ID NO: 19): −0.60
ACOX1 [504], log 2 scale, drug vs DMSO
  L/H ratio of acetylated peptide NLQK(ac)EVIHR (SEQ ID NO: 125): 0.54
ACTN1 [398], log 2 scale, drug vs DMSO
  L/H ratio of acetylated peptide LDHLAEK(ac)FR (SEQ ID NO: 20): −0.51
ADAR [757], log 2 scale, drug vs DMSO
  L/H ratio of acetylated peptide LVDQSGPPHEPK(ac)FVYQAK (SEQ ID NO: 126): −0.41
ADINTK(ac)WAATR (SEQ ID NO: 202), Ribosomal protein L14 variant [85], RPL14
  light to heavy ratio (L/H ratio) of acetylated peptide, log 2 scale: −0.50
ADK(ac)DYHFK (SEQ ID NO: 191), Isoform 2 of Nucleophosmin [27], NPM1
  light to heavy ratio (L/H ratio) of acetylated peptide, log 2 scale: −0.60
ADP-ribosylation factor-like protein 6-interacting protein 1 [96], ARL6IP1, drug:DMSO
  light to heavy ratio (L/H ratio) of acetylated peptide IFGSNK(ac)WTTEQQQR (SEQ ID NO: 306): 0.45 log 2
ADP-ribosylation factor-like protein 11 [31], gene ARL11, inhibitor:DMSO
  light to heavy ratio (L/H ratio) of acetylated peptide TTLLYK(ac)LK (SEQ ID NO: 624): 0.00 log 2
ADP/ATP translocase 1 [166], SLC25A4, drug:DMSO
  light to heavy ratio (L/H ratio) of acetylated peptide IFK(ac)SDGLR (SEQ ID NO: 280): 0.48 log 2
ADP/ATP translocase 3 [166], gene SLC25A6, inhibitor:DMSO
  light to heavy ratio (L/H ratio) of acetylated peptide ITK(ac)SDGIR (SEQ ID NO: 587): 0.00 log 2
AFG3L2 [543], log 2 scale, drug vs DMSO
  L/H ratio of acetylated peptide HLSDSINQK(ac)HFEQAIER: −0.39
AFYK(ac)SFSK (SEQ ID NO: 170), Endoplasmin [360], HSP90B1
  light to heavy ratio (L/H ratio) of acetylated peptide, log 2 scale: −1.00
AGVNTVTTLVENK(ac)K (SEQ ID NO: 206), 60S ribosomal protein L7a [150], RPL7A, SNORD24
  light to heavy ratio (L/H ratio) of acetylated peptide, log 2 scale: −0.42
AGYNVK(ac)QLFR (SEQ ID NO: 199), Isoform 1 of Ras-related protein Rab-6A [164], RAB6A
  light to heavy ratio (L/H ratio) of acetylated peptide, log 2 scale: 0.45
AHPVFYQGTYSQALNDAK(ac)R (SEQ ID NO: 153), FAS-associated factor 2 [167], FAF2
  light to heavy ratio (L/H ratio) of acetylated peptide, log 2 scale: −0.48
ANP32B [101], log 2 scale, drug vs DMSO
  L/H ratio of acetylated peptide LK(ac)DISTLEPLKK (SEQ ID NO: 21): −0.56
ANXA6 [63], log 2 scale, drug vs DMSO
  L/H ratio of acetylated peptide QRQEVCQSYK(ac)SLYGK (SEQ ID NO: 22): 0.68
ANXA11 [478], log 2 scale, drug vs DMSO
  L/H ratio of acetylated peptide LGTDESK(ac)FNAVLCSR (SEQ ID NO: 7): −0.44
